In PubChem BioAssay (NCI):
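How tested: cells in 96-well plates exposed to compound for 48 hours at five concentrations. The concentration for 50% growth inhibition is given as GI50. TGI is the concentration that stops growth completely.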

Key:
Experiment in all cases: NCI tumour cell line growth inhibition, 48 h
[1] = system: U251 CNS
[2] = system: KM12 colon
[3] = system: SF-539 CNS
[4] = system: NCI-H23 lung
[5] = system: DU-145 prostate
[6] = system: A498 renal
[7] = system: M14 melanoma
[8] = system: OVCAR-5 ovarian
[9] = system: HCT-116 colon
[10] = system: RXF 393 renal
[11] = system: UACC-257 melanoma
[12] = system: MDA-MB-435
[13] = system: LOX IMVI melanoma
[14] = system: NCI-H460 lung
[15] = system: RPMI-8226 leukemia
[16] = system: SW-620 colon
[17] = system: EKVX NSCLC
[18] = system: CCRF-CEM leukemia
[19] = system: HOP-62 NSCLC
[20] = system: SR leukemia
[21] = system: MDA-MB-231 breast
[22] = system: SNB-75 CNS
[23] = system: OVCAR-3 ovarian
[24] = system: TK-10 renal
[25] = system: HCT-15 colon
[26] = system: UO-31 renal
[27] = system: ACHN renal
[28] = system: PC-3 prostate
[29] = system: OVCAR-4 ovarian
[30] = system: SK-MEL-5 melanoma
[31] = system: SF-295 CNS
[32] = system: K-562 leukemia
[33] = system: UACC-62 melanoma
[34] = system: MCF7 breast
[35] = system: MOLT-4 leukemia
[36] = system: BT-549 breast
[37] = system: 786-0 renal
[38] = system: SF-268 CNS
[39] = system: HCC-2998 colon
[40] = system: NCI-H522 lung
[41] = system: SNB-19 CNS
[42] = system: NCI/ADR-RES ovarian
[43] = system: HS 578T breast
[44] = system: IGROV1 ovarian
[45] = system: OVCAR-8 ovarian
[46] = system: SN12C renal
[47] = system: SK-OV-3 ovarian
[48] = system: SK-MEL-28 melanoma
[49] = system: MALME-3M melanoma
[50] = system: HT29 colon
[51] = system: A549 NSCLC
[52] = system: CAKI-1 renal
[53] = system: HL-60(TB) leukemia
[54] = system: SK-MEL-2 melanoma
[55] = system: T-47D breast
[56] = system: HOP-92 NSCLC
[57] = system: COLO 205 colon

Cc1oc2nc[nH]c(=O)c2c1C(=O)/C=C/c1ccc(Br)cc1 was tested, and the GI50 [1] was 1.44 µM, the TGI [1] was 3.17 µM and the GI50 [2] was 1.51 µM. The TGI [2] was 3.44 µM, the GI50 [3] was 1.73 µM and the TGI [3] was 4.64 µM. It also gave a GI50 [4] of 2.07 µM, a TGI [4] of 7.82 µM and a GI50 [5] of 2.03 µM. The TGI [5] was 7.85 µM, the GI50 [6] was 2.46 µM and the TGI [6] was 6.82 µM. The GI50 [7] was 2.14 µM, the TGI [7] was 8.53 µM and the GI50 [8] was 2.93 µM. It also gave a TGI [8] of 9.32 µM, a GI50 [9] of 1.26 µM and a TGI [9] of 2.82 µM. For the same compound, the GI50 [10] was 1.41 µM, the TGI [10] was 3.22 µM and the GI50 [11] was 2.37 µM. The TGI [11] was 11.3 µM, the GI50 [12] was 2 µM and the TGI [12] was 6.69 µM. It also gave a GI50 [13] of 1.03 µM, a TGI [13] of 2.43 µM and a GI50 [14] of 3.25 µM. The TGI [14] was 11 µM, the GI50 [15] was 1.36 µM and the TGI [15] was 6.91 µM. The GI50 [16] was 2.16 µM, the TGI [16] was 7.09 µM and the GI50 [17] was 2.37 µM. It also gave a TGI [17] of 12.8 µM, a GI50 [18] of 1.01 µM and a TGI [18] of 30.6 µM. The GI50 [19] was 2.62 µM, the TGI [19] was 9.73 µM and the GI50 [20] was 1.35 µM. The TGI [20] was 16.3 µM, the GI50 [21] was 3.47 µM and the TGI [21] was 17.8 µM. It also gave a GI50 [22] of 1.23 µM, a TGI [22] of 9.62 µM and a GI50 [23] of 1.85 µM. It also gave a TGI [23] of 5.74 µM, a GI50 [24] of 4.46 µM and a TGI [24] of 13.3 µM. The GI50 [25] was 1.09 µM, the TGI [25] was 4.96 µM and the GI50 [26] was 0.781 µM. It also gave a TGI [26] of 7.39 µM, a GI50 [27] of 1.6 µM and a TGI [27] of 5.61 µM. The GI50 [28] was 2.36 µM, the TGI [28] was 15.6 µM and the GI50 [29] was 2.51 µM. For the same compound, the TGI [29] was 13.1 µM, the GI50 [30] was 1.56 µM and the TGI [30] was 3.27 µM. It also gave a GI50 [31] of 4.22 µM, a TGI [31] of 15 µM and a GI50 [32] of 0.798 µM. The TGI [32] was over 100 µM, the GI50 [33] was 1.33 µM and the TGI [33] was 3.03 µM. The GI50 [34] was 0.505 µM, the TGI [34] was 11.5 µM and the GI50 [35] was 2.84 µM. For the same compound, the TGI [35] was 17.9 µM, the GI50 [36] was 1.74 µM and the TGI [36] was 4.13 µM. For the same compound, the GI50 [37] was 1.8 µM, the TGI [37] was 3.97 µM and the GI50 [38] was 3.08 µM. The TGI [38] was 17.5 µM, the GI50 [39] was 1.7 µM and the TGI [39] was 3.26 µM. It also gave a GI50 [40] of 1.89 µM, a TGI [40] of 5.76 µM and a GI50 [41] of 1.8 µM. The TGI [41] was 5.44 µM, the GI50 [42] was 1.84 µM and the TGI [42] was 20.8 µM. For the same compound, the GI50 [43] was 3.49 µM, the TGI [43] was 38.9 µM and the GI50 [44] was 1.81 µM. It also gave a TGI [44] of 10.2 µM, a GI50 [45] of 2.08 µM and a TGI [45] of 88.3 µM. The GI50 [46] was 2.95 µM, the TGI [46] was 11.9 µM and the GI50 [47] was 4.08 µM. For the same compound, the TGI [47] was 15.5 µM, the GI50 [48] was 2.39 µM and the TGI [48] was 8.3 µM. It also gave a GI50 [49] of 1.89 µM, a TGI [49] of 6 µM and a GI50 [50] of 2.36 µM. The TGI [50] was 6.3 µM, the GI50 [51] was 2.73 µM and the TGI [51] was 14.2 µM. For the same compound, the GI50 [52] was 1.34 µM, the TGI [52] was 11.5 µM and the GI50 [53] was 2.32 µM. It also gave a TGI [53] of 10.3 µM, a GI50 [54] of 2.34 µM and a TGI [54] of 7.1 µM. It also gave a GI50 [55] of 1.86 µM, a TGI [55] of 14.2 µM and a GI50 [56] of 1.35 µM. For the same compound, the TGI [56] was 6.86 µM, the GI50 [57] was 1.7 µM and the TGI [57] was 5.5 µM.
